We go through one compound from patent US6548540B2, “Method of treating cancer using dithiocarbamate derivatives” (Charlotte-Mecklenburg Hospital Authority, priority 1998, dated 2003).

Molecules are shown by their SMILES.

The subject of one assay is NF-κB. As to the kind of experiment: EMSA of treated cells, NF-κB DNA binding. Type of assay: cell-based, human. The settings on record: disulfiram plus copper; 12 hours; data not shown. As for the experimental part: Nuclear protein was isolated and DNA binding reactions were performed as previously described in detail (See, […], et al., “Dehydroepiandrosterone and analogs inhibit DNA binding of AP-1 and airway smooth muscle proliferation,” J. Pharmacol. Exper. Ther. 285:[…] (1998); T. Kennedy, et al., “Copper-dependent inflammation and nuclear factor-κB activation by particulate air pollution,” Am. J. Respir. Cell Mol. Biol. 19:366-378 (1998)). Monolayers were washed twice in cold DPBS and equilibrated 10 minutes on ice with 0.7 ml cold cytoplasmic extraction buffer, CEB (10 mM Tris, pH 7.9, 60 mM KCl, 1 mM EDTA, 1 mM DTT) with protease inhibitors, PI (1 mM Pefabloc, 50 μg/ml antipain, 1 μg/ml leupeptin, 1 μg/ml pepstatin, 40 μg/ml bestatin, 3 μg/ml E-64 and 100 μg/ml chymostatin). The detergent Nonidet P-40 (NP-40) was added to a final concentration of 0.1% and cells were dislodged with a cell scraper. Nuclei were pelleted by centrifugation and washed with CEB/PI. […] Competition experiments were performed with 10×unlabeled wild-type oligonucleotide sequences for CRE or […] and 3'-[NT]5'), added before labeled probe. Supershift experiments were performed by incubating the binding reaction with 1 μg of supershifting antibody prior to electrophoresis. […] Gels were dried and analyzed by autoradiography at -80° C. using an image intensifier screen. […]

In assay [1] the target is T1, transcription factor binding to CRE (ATF2 containing complex II) (Homo sapiens, UniProt P15336).
T1 construct: endogenous in cells; host or cells: M1619 human melanoma cells, crude nuclear protein extract
T1 sequence (P15336 1-505): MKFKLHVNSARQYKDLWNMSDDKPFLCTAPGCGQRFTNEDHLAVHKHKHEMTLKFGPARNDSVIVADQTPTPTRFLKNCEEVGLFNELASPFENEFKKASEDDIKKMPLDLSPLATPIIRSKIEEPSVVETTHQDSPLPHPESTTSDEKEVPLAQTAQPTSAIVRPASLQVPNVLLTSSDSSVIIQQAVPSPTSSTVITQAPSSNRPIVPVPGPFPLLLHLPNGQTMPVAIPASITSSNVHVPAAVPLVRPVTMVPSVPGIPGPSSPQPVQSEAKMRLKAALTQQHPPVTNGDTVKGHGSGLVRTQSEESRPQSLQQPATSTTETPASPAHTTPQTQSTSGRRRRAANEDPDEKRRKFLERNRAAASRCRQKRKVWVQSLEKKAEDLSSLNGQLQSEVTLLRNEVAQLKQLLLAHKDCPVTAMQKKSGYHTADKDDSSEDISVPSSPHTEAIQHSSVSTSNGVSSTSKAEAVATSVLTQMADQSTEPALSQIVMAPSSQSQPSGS
As to the kind of experiment: EMSA, agents added directly to binding reaction. The settings on record: for transcription factor binding to CRE: DTT 2.5 mM; for transcription factor binding to CRE, effect with GSH instead of DTT: GSH 3.0 mM as reducing agent. Here is the method:
This dose was chosen to approximate the steady state plasma and tissue concentrations of drug in human subjects on chronic therapy with this agent. Disulfiram was solubilized in dimethylsulfoxide (DMSO) so that the final concentration of DMSO was less than 0.3-0.5%. Equal volumes of DMSO were added to control experiments. Nuclear protein was harvested and electrophoretic mobility gel shift assays were performed using DNA consensus binding sequence for the cyclic-AMP responsive element (CRE) as outlined below. […] EMSAs were performed using consensus oligonucleotides ([NT] and 3'-[NT]5') for the cyclic-AMP responsive element CRE (ProMega, Madison, Wis.), end-labeled by phosphorylation with [γ^32P]-ATP and T4 polynucleotide kinase. DNA-protein binding reactions were performed with 2 μg of nuclear protein (as determined by the Pierce method) and 30-80,000 cpm of ^32P-end-labelled double-stranded DNA probe in 10 mM Tris-HCl, pH 7.5, 50 mM NaCl, 0.5 mM EDTA, 0.5 mM DTT (except where indicated), 1 mM MgCl2, 50 μg/ml poly dI-dC, and 4% glycerol. All components of the binding reaction with the exception of labeled probe were combined and incubated at room temperature for 10 minutes before addition of labeled probe and incubation for an additional 20 minutes. To determine if inhibition of transcription factor binding to CRE could be attributed to direct transcription factor modification by disulfiram and copper, we studied the effect of adding each agent directly to the binding reaction performed with nuclear protein from untreated […] cells. Therein electrophoretic mobility shift assays (EMSAs) were performed showing that addition of disulfiram plus copper to the binding reaction reduces DNA binding to CRE. […] In lanes 1-5, DTT (2.5 mM) was added to the binding reaction as a reducing agent, whereas in lane 6-9, GSH (3.0 mM) was used.

For `CCN(CC)C(=S)SSC(=S)N(CC)CC` [Disulfiram, tetraethylthiuram disulfide], the “DNA binding of NF-κB” value in the assay with NF-κB is given as “inhibited”. The “transcription factor binding to CRE” value in assay [1] (disulfiram 5 μM alone added to binding reaction) is recorded as “reduced”; in assay [1] (disulfiram 5 μM and 1.6 μM CuSO4 added to binding reaction), “reduced”. In addition, the “transcription factor binding to CRE, effect with GSH instead of DTT” value is “more pronounced” in assay [1] (disulfiram 5 μM alone); “more pronounced” in assay [1] (disulfiram 5 μM and 1.6 μM CuSO4).
